Test results from patent US10357577B2, “Bacterial nitroreductase enzymes and methods relating thereto” (AUCKLAND UNISERVICES LIMITED, priority 2010, dated 2019).
Entries after “also recorded” stand apart in the source; their conditions may differ.

Legend:
[1] = test system: HCT116 cells expressing E. coli NfsB; test: Monolayer antiproliferative (IC50) assay, NTR-expressing HCT116; type: cell-based, human; settings: 18 hrs exposure, 5 days regrowth
Description: (§1) FIGS. 10 (B) and 10 (C) illustrates the results of evaluation of 2-nitroimidazole clinical imaging candidates with E. coli and non-E. coli NTRs. Stably-expressing cells were treated with varying concentration of 2-nitroimidazole prodrugs diluted in αMEM+5% FCS+P/S. Cells were exposed to prodrug for 18 hrs, washed and left to regrow for 5 days. IC50 was determined as the concentration of prodrug required to inhibit cell growth by 50% of untreated controls. IC50 values are mean for ≥2 independent experiments. WT:NTR ratio-ratio of IC50 means from WT cells versus NTR-expressing cell lines.
as §1, with “FIG. 21” for “FIGS. 10 (B) and 10 (C)”, “antiproliferative activity (IC50 value)” for “the results”, “prodrug” for “evaluation of 2-nitroimidazole clinical imaging”, “nitroreductases.” for “NTRs.”, “prodrug” for “2-nitroimidazole prodrugs”, “ratio-interexperimental ratio” for “ratio-ratio”
(§2) Isolated NTR gene sequences were subject to PCR and introduced in the bicistronic plasmid F579 via Gateway cloning (Invitrogen) as described by Prosser et al. (2010, Biochem Pharmacol, 79, 678-687). Stably transfected cell lines were created by transfection of the relevant plasmid using FuGENE 6 Transfection Reagent (Roche). Transfected cell populations were maintained by passage in puromycin
(§3) Cells were passaged in alpha-Minimal Essential Media, (αMEM; Gibco) supplemented with 5% FBS, (GIBCO NZ) without antibiotics. Cell were passaged for <3 months from frozen stocks and confirmed Mycoplasma free (PCR-ELISA; Roche Diagnostics). Cells were aliquoted into the 96-well plate (100 μL/well) and cells were left to attach (≥4 hrs). […] Plates were read on an ELx 808 Absorbance Microplate Reader (Bio-Tek Instruments). Absorbance was measured at 490 nm and 450 nm (final absorbance 490-450). […]

[2] = test system: HCT116 cells expressing NfsB homologue P. putida 2432; test: as above; type: cell-based, human; settings: 18 hrs exposure, 5 days regrowth
Description: as §1, §2
as §3, with “Diagnostics).” for “Diagnostics). Cells were aliquoted into the 96-well plate (100 μL/well) and cells were left to attach (≥4 hrs).”

NfsB(Ec) = target: T1, NfsB(Ec) (Escherichia coli, UniProt P38489); test: Growth Inhibition assay, NTR over-expressing E. coli SOS-R2; type: cell-based; settings: elevated substrate concentrations (400 μM F-MISO, 600 μM HX4)
T1 construct: expressed in transfected cells; host or cells: E. coli SOS-R2 (endogenous nfsA, nfsB, nemA and azoR deleted) carrying pUCX::ntr
T1 sequence (P38489 whole entry): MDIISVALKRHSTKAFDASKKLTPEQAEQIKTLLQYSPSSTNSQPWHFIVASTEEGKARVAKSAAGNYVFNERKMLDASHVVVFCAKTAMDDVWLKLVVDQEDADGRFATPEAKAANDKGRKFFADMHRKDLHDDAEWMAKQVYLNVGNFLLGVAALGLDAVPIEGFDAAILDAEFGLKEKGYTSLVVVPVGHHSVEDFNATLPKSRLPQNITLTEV
Description: FIG. 34 (B) illustrates the metabolism of F-MISO by members of the 58 NTR over-expression library as measured by Growth Inhibition assay as described for FIG. 34A except that cells were challenged with 400 μM F-MISO.
FIG. 35 (B) illustrates the metabolism of HX4 by members of the 58 NTR over-expression library as measured by Growth Inhibition assay as described for FIG. 35A except that cells were challenged with 600 μM HX4.
Individual microtiter plate wells containing 200 μl LB+amp, 0.4% glucose were inoculated with SOS-R2 pUCX::ntr strains and incubated overnight at 30° C., 200 rpm. Ten μl of the overnight culture were used to inoculate 190 μl of fresh assay media (LB+amp, 0.05 mM IPTG, 0.2% glucose) and incubated at 30° C., 200 rpm for 3 h. The 200 μl culture was split into 100 μl duplicates which were supplemented with either 100 μl challenge media (assay media+250 uM EF5+2% DMSO) or 100 μl control media (assay media+2% DMSO). Initial OD600 readings were recorded and then plates incubated at 30° C., 200 rpm for 4 h after which final OD600 readings were taken and used to calculate strains respective growth inhibition in EF5 presence.

[3] = test system: nitroreductase NfsA-expressing HCT116 'activator' cells; test: MCL (multicellular layer) bystander experiment, NfsA-dependent activation; type: cell-based, human
Description: Displacement of the Target cell survival curve to the left (T to Tc) is indicative of the presence of a cytotoxic metabolite(s) able to diffusible out of the sensitive activator (A) cell population. The prodrug concentrations for 10% survival (C10) of target cells (wild-type cells) grown without activators (T), targets in co-culture (TC) and activators (nfsA-expressing cells) in co-culture (AC) were determined by interpolation. BEE-Bystander effect efficiency calculates the drugs bystander effect: ((Log C10T−Log C10TC)/(Log C10T−Log C10AC)).
The prodrug concentrations for 10% survival (C10) of target cells (wild-type cells) grown without activators (T), and targets in co-culture (TC) and activators (NTR-expressing cells) in co-culture (AC) can be determined. The bystander effect of a test prodrug is measured by the bystander effect efficiency which can be calculated using the algorithm ((Log C10T−Log C10TC)/(Log C10T−Log C10AC)).
Millicell-CM membrane inserts (Millipore) were coated in calf-skin collagen type III (Sigma-Aldrich) to facilitate cell attachment. […] After exposure, inserts were disaggregated (0.07% trypsin, 10 min, 37° C., followed by 100 μg/ml DNAase I (Sigma-Aldrich). Cells were counted, resuspended and plated in P60 dishes to determine clonogenic survival. To discriminate clonogenic activator (NTR+) from target (NTR−) colonies cells were plated in non-selective medium (total cells) and medium containing 1 μM puromycin (activator cells). Colonies were grown in a 37° C. 5% CO2 incubator for 10 days before staining with methylene blue (2 g/liter in 50% v/v aqueous ethanol). Colonies containing >50 cells were counted as clonogenic survivors. Surviving fractions for each population was calculated as the plating efficiency for drug-treated MCLs/untreated controls. The drug concentrations for 10% survival (C10) of target cells grown without activators (T), targets in co-culture (Tc) and activators in co-culture (Ac) was determined by interpolation.

[4] = test system: ONYX-411^WT infected HCT-116WT cells; test: Cytopathic effect assay, control virus; type: cell-based, adenovirus; settings: metronidazole refreshed every 2 days, read on day 9
Description: (§4) FIG. 31 illustrates the cytoprotective effects of NfsB dependent activation of metronidazole by conditionally replicating virus ONYX411^NfsB. HCT-116WT cells were seeded overnight and the top wells were infected with 0.125 MOI for ONYX411-nfsB and 1 MOI for ONYX411-WT with 2-fold serial dilutions. 24 hrs following infection media was replaced with fresh αMEM containing 2% FCS and varying concentrations of metronidazole, which was refreshed every 2 days. On day 9 wells were fixed with 10% TCA and stained with SRB and cell density analysed.
(§5) HCT-116WT cells were seeded overnight and the top wells were infected with 0.125 MOI of the replication competent adenovirus ONYX411-nfsB and 1 MOI for ONYX411-WT with 2-fold serial dilutions ((Singleton et al, 2007, Cancer Gene Ther 14 (12): 953-967). 24 hrs following infection media was replaced with fresh αMEM containing 2% FCS and varying concentrations of metronidazole, which was refreshed every 2 days. On day 9 wells were fixed with 10% TCA and stained with SRB and cell density analysed.

[5] = Human plasma concentration-time (AUC) and tolerability; type: in vivo; settings: 50 μM metronidazole exposure, achievable in humans, read-out: human AUC equivalent to the protective exposure
[6] = test system: ONYX-411^NfsB infected HCT-116WT cells; test: Cytopathic effect assay, replicating adenovirus expressing E. coli NfsB; type: cell-based; settings: metronidazole refreshed every 2 days, read on day 9
Description: as §4, §5

[7] = test system: 25% HCT-116^nfsB/75% HCT-116^WT or 25% HCT-116^nfsA/75% HCT-116^WT tumours; test: Tumour xenograft growth delay; type: in vivo, NIH-III nude mice; settings: single dose i.p. PR-104 1000 μmol/kg
Description: FIG. 18 illustrates in vivo activity of PR-104 in 25% nfsB or 25% nfsA tumours. Average tumour volume and Kaplan-Meier growth plots for tumours grown subcutaneously on NIH-III mice. Tumours were composed of either 25% HCT-116^nfsB/75% HCT-116^WT or 25% HCT-116^nfsA/75% HCT-116^WT. When tumours reached 7 mm^2 mice (n=8-11 per group) were randomly assigned to a treatment group and injected with a single dose (i.p.) of PBS (control) or PR-104 (1000 μmol/kg). Tumour measurements were recorded twice weekly and mice were culled when tumours exceeded a mean diameter of […].
Specific pathogen-free female homozygous NIH-III nude mice (CrI:NIH-Lyst^bgFoxn1^nuBtk^xid; Charles River Laboratories) were housed in Techniplast microisolator cages and fed Harlan Teklad diet 2018i. […] Tumours were monitored using electronic calipers and mice were randomised into treatment groups once their tumours reached 7×7 mm in diameter. Tumour size and body weight were determined three times weekly. Tumour volume was calculated as π (I×w^2)/6, where I is the major axis and w is the perpendicular minor axis. […] The median time for tumours to increase in volume 4-fold relative to pretreatment volume (RTV-4) was determined, and the specific growth delay (SGD) was calculated as the percentage increase in RTV-4 for treated versus control groups. […]

O=[N+]([O-])c1nccn1CC(O)CF (stereo not drawn) [F-MISO, 1-fluoro-3-(2-nitro-1H-imidazol-1-yl)propan-2-ol]
sensitivity to 2-nitroimidazoles (in words) [1]: modest sensitivity | sensitivity to 2-nitroimidazoles (in words) [2]: modest sensitivity | activity with 2-NI substrate (in words) (NfsB(Ec)): substantial activity

Cc1ncc([N+](=O)[O-])n1CCO [Metronidazole, 2-(2-methyl-5-nitro-1H-imidazol-1-yl)ethanol]
bystander property (in words) ([3]; MCL of NTR-expressing and parental HCT116 cells): lack any measurable bystander effect; also recorded: zero bystander property | estimated bystander effect efficiency (BEE) ([3]; hyperoxic (95% O2) MCLs, at concentrations achievable in α-MEM+10% FBS, activator fraction differs per experiment): 0% | effect on oncolytic activity (in words) [4]: no inhibitory effects | AUC [5]: 1200 µM·h | concentration range with reduction in oncolytic activity [6]: 50 to 500 µM

CS(=O)(=O)OCCN(CCBr)c1c(C(=O)NCCOP(=O)(O)O)cc([N+](=O)[O-])cc1[N+](=O)[O-] [PR-104, 2-((2-bromoethyl)(2,4-dinitro-6-((2-(phosphonooxy)ethyl)carbamoyl)phenyl)amino)ethyl methanesulfonate]
PR-104 dependent growth delay, nfsB versus nfsA tumours (in words) [7]: similar, with no statistically significant difference
